Reference: US20230136562A1, “SPIROUREA DERIVATIVES” (Idorsia Pharmaceuticals Ltd, priority 2020, published 2023)
pEC50: −log10 of the molar value.

How the values were obtained:
[1] = test system: Wistar rats; experiment: Amygdala-kindling rat model; assay type: in vivo; conditions: formulation 90% MC 0.5% + 10% PEG400
Protocol: Formulation and Administration.
Compounds were formulated in a 10% polyethylene glycol 400 (PEG 400)/90% aqueous solution of 0.5% methylcellulose (MC 0.5%). Firstly drugs are dissolved in PEG 400 and then suspended in MC 0.5% for oral gavage at X mg/5 mL/kg (X see table).
Amygdala-Kindling Rat Model:
1. Procedure: Adult male Wistar rats (Harlan Laboratories, Netherlands, or Charles Rivers, Germany; body weight 300-350 g) were stereotaxically implanted with twisted bipolar plastic-coated stainless steel electrode (MS333-2-BIU 10 mm, Plastics One) into the right basolateral amygdala under isoflurane anesthesia. To place the electrode, trepanations were made in the skull and the electrode was lowered into the right basolateral amygdala (from bregma: anteriorposterior (AP): −2.5 mm, medio-lateral (ML): −3.5 mm, dorso-ventral (DV): −8.6 mm; α=10°) and secured to the skull with screws and dental acrylate. After one week of recovery, they were handled daily and habituated over one week to the kindling set-up. Kindling procedure: For a kindling session each rat was placed individually into a smooth acrylic plastic, round-bottomed bowl (Ø 36 cm, height 36 cm, BASi movement-responsive caging system) and its intracranial implanted electrode was connected to the stimulator (STG4008, Multichannel Systems GmbH) and the recording devices (PowerLab 8/35, ADInstruments Ltd) via a cable (335-340/3 (C), Plastics One). For the kindling procedure, each rat was exposed once daily to an electrical stimulation and the behavioral symptoms of the evoked seizure were observed and classified according to the modified Racine scale (stage 0, arrest, wet dog shakes, normal behaviour; stage 1, facial twitches: nose, lips, eyes; stage 2, chewing, head nodding; stage 3, forelimb clonus; stage 4, rearing, falling on forelimbs; stage 5, rearing, falling on side or back, rolling). The electrical stimulus consists of a 1s-train of 50 Hz square-wave biphasic pulses of 1-ms duration at an intensity of 400 μA (suprathreshold intensity). […] Data Scoring and analysis. The duration of electroencephalographic seizures (afterdischarge, AD) was recorded using LabChart7 Pro software (ADlnstruments Ltd). Simultaneously, videos were recorded to evaluate seizure stage (SS).
2. Compound testing: Acute drug effects were evaluated in groups of 6-8 fully kindled rats in a randomized cross-over design with 48 h between drug and vehicle applications. Following oral administration of drug or vehicle, drug testing included determination of the afterdischarge threshold (the minimal stimulation intensity necessary to evoke an afterdischarge (electroencephalographically measured neuronal hyper-synchronous activity with an amplitude 2-times higher than baseline amplitude and a frequency of ≥1 Hz) of at least 3 sec duration) and monitoring electroencephalographic and behavioral correlates of the evoked seizure at ADT (afterdischarge threshold), including AD duration and SS, by a experimenter blind to treatment assignment.

[2] = biological target: T1, Kv7.2/7.3 (Homo sapiens, UniProt O43525+O43526); experiment: Kv7.2/3 assay (FLIPR potassium assay, agonist mode); assay type: cell-based; conditions: Kv7.2/7.3 activation; HEK293 cells, human KCNQ2 and KCNQ3
T1 construct: expressed in transfected cells; host or cells: HEK293
Protocol: HEK293 cells were stably transfected with the appropriate ion channel cDNA(s) (human KCNQ2 and KCNQ3 genes). Cells were cultured in Dulbecco's Modified Eagle Medium/Nutrient mixture F-12 (D-MEM/F-12) supplemented with 10% fetal bovine serum, 100 U/mL penicillin G sodium, 100 µg/mL streptomycin sulfate and selection antibiotics. FLIPR Test Procedure: For FLIPR assay, cells were plated in 384-well black clear-bottomed microtiter plates (BD Biocoat Poly-D-Lysine Multiwell Cell Culture Plate) at 15'000 to 30'000 cells per well. Cells were incubated at 37° C. overnight or until cells reached sufficient density in the wells (near confluent monolayer) to use in fluorescence assays. […] Assays were performed with the FLIPR potassium assay kit (Molecular Devices) according to the manufacturer's instructions. Dye-loading: Growth media was removed and replaced with 20 μL of dye loading buffer for 60 min at room temperature. FLIPR Recording (agonist mode): Stock solutions of test compounds were prepared at a concentration of 33.3 mM in DMSO. 5 μL of 5× concentrated test, vehicle, or control compounds solutions prepared in the stimulation buffer (K^+-free buffer with 5 mM TI^+) were added to each well and fluorescence recording was continued for 5 min. The agonist effect (EC50 and % effect) of test or control compounds on Kv7 channels was determined as follows: Raw data was exported using Screenworks® 4.2 software and the fluorescence traces were analysed using Microsoft Excel (Microsoft Corp., Redmond, Wash.). The test compounds responses were expressed as % of maximum response of the control compound Flupirtine (Sigma-Aldrich), which was tested at concentrations ranging from 0.03 to 100 μM. Concentration-response data were fitted to a Hill equation. Non-linear least squares fits were made assuming a simple binding model. If appropriate, fits were weighted by the standard deviation. No assumptions about the fit parameters were made; the fit parameters were determined by the algorithm.

[3] = 30 mg/kg po, time of challenge 1 h
[4] = 100 mg/kg po, time of challenge 1 h
[5] = 10 mg/kg po, time of challenge 15 min

Row | Structure (SMILES) | AD duration [% vs veh] [1, 3] [% vs veh] | Seizure stage [% vs veh] [1, 3] [% vs veh] | pEC50 [2] | AD duration [% vs veh] [1, 4] [% vs veh] | Seizure stage [% vs veh] [1, 4] [% vs veh] | AD duration [% vs veh] [1, 5] [% vs veh] | Seizure stage [% vs veh] [1, 5] [% vs veh]
1 | O=C(NCc1cc(OCC(F)(F)F)ncn1)NC1CC2(CCC2)C1 [Example 59, 1-Spiro[3.3]hept-2-yl-3-[6-(2,2,2-trifluoro-ethoxy)-pyrimidin-4-ylmethyl]-urea] | −96 | −83 | 7.91 |  |  |  | 
2 | O=C(NCc1cccc(C(F)(F)F)c1)NC1CC2(CC2)C1 [Example 2, 1-Spiro[2.3]hex-5-yl-3-(3-trifluoromethyl-benzyl)-urea] |  |  | 7.15 | −93 | −88 |  | 
3 | O=C(NC1CC2(CC2)C1)N[C@@H](CO)c1cccc(C(F)(F)F)c1 (single isomer, unassigned) [Example 186] |  |  | 7.64 |  |  | −87 | −50
